From PubChem BioAssay AID248 (DTP/NCI, 2004)
Inconclusive results and toxic doses are left out. Cut-off read from the data, not from the text of the source: active = T/C of 150% or more; inactive = T/C below 125%.

Test system: L1210 leukemia ip in BDF1 mice, survival T/C
Experiment: NCI In Vivo Anticancer Drug Screen. Data for tumor model L1210 Leukemia (intraperitoneal) in B6D2F1 (BDF1) mice
Details: endpoint: mean survival time, higher = longer survival
Outline: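 Mice bearing the transplanted tumor received compound or vehicle. Survival of the treated group was divided by that of the vehicle-treated control group to give the ratio.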

[1] = dose: 100.0 mg/kg/injection, schedule: Q04DX002 (ip), vehicle: Klucel (hydroxypropylcellulose) (HPC)
[2] = dose: 200.0 mg/kg/injection, schedule: Q04DX002 (ip), vehicle: Klucel (hydroxypropylcellulose) (HPC)
[3] = dose: 400.0 mg/kg/injection, schedule: Q04DX002 (ip), vehicle: Klucel (hydroxypropylcellulose) (HPC)
[4] = dose: 100.0 mg/kg/injection, schedule: Q01DX001 (ip), vehicle: saline
[5] = dose: 100.0 mg/kg/injection, schedule: Q01DX009 (ip), vehicle: saline
[6] = dose: 100.0 mg/kg/injection, schedule: Q01DX001 (ip), vehicle: Klucel (hydroxypropylcellulose) (HPC)

Measured: T/C

CNC(=O)OCC1=C(OC)C(=O)C(OC)=CC1=O
inactive: dose: 12.5 mg/kg/injection, schedule: Q01DX009 (ip), vehicle: other 90 % of control | dose: 12.5 mg/kg/injection, schedule: Q04DX003 (ip), vehicle: other 97 % of control | dose: 25.0 mg/kg/injection, schedule: Q01DX009 (ip), vehicle: other 92 % of control | dose: 25.0 mg/kg/injection, schedule: Q04DX003 (ip), vehicle: other 96 % of control | dose: 50.0 mg/kg/injection, schedule: Q01DX009 (ip), vehicle: other 90 % of control | dose: 50.0 mg/kg/injection, schedule: Q04DX003 (ip), vehicle: other 100 % of control

CC(C)=CCCC(C)C/C=N\N=C(N)N (configuration not stated)
inactive: dose: 15.0 mg/kg/injection, schedule: Q01DX Z (ip), vehicle: carboxymethylcellulose (CMC) 95 % of control | dose: 30.0 mg/kg/injection, schedule: Q01DX Z (ip), vehicle: carboxymethylcellulose (CMC) 98 % of control | dose: 30.0 mg/kg/injection, schedule: Q01DX Z (oral), vehicle: carboxymethylcellulose (CMC) 118 % of control | dose: 60.0 mg/kg/injection, schedule: Q01DX Z (ip), vehicle: carboxymethylcellulose (CMC) 97 % of control | dose: 60.0 mg/kg/injection, schedule: Q01DX Z (oral), vehicle: carboxymethylcellulose (CMC) 101 % of control | dose: 120.0 mg/kg/injection, schedule: Q01DX Z (oral), vehicle: carboxymethylcellulose (CMC) 97 % of control | dose: 240.0 mg/kg/injection, schedule: Q01DX Z (oral), vehicle: carboxymethylcellulose (CMC) 101 % of control

CCCCCCC1CCCCN1 (configuration not stated)
inactive: dose: 5.0 mg/kg/injection, schedule: Q01DX001 (ip), vehicle: saline 104 % of control | dose: 10.0 mg/kg/injection, schedule: Q01DX001 (ip), vehicle: saline 96 % of control | dose: 12.5 mg/kg/injection, schedule: Q04DX003 (ip), vehicle: saline with Tween-80 103 % of control | dose: 20.0 mg/kg/injection, schedule: Q01DX001 (ip), vehicle: saline 98 % of control | dose: 25.0 mg/kg/injection, schedule: Q04DX003 (ip), vehicle: saline with Tween-80 98 % of control | dose: 40.0 mg/kg/injection, schedule: Q01DX001 (ip), vehicle: saline 96 % of control | dose: 50.0 mg/kg/injection, schedule: Q04DX003 (ip), vehicle: saline with Tween-80 103 % of control

Cc1cc(C)c(NC(=O)Nc2ccc(Cl)c(Cl)c2)cc1C
inactive: [1] 93 % of control | [2] 96 % of control | [3] 93 % of control

CSc1nsc(N)n1
inactive: dose: 75.0 mg/kg/injection, schedule: Q01DX001 (ip), vehicle: other 102 % of control | dose: 100.0 mg/kg/injection, schedule: Q04DX003 (ip), vehicle: Klucel (hydroxypropylcellulose) (HPC) 100 % of control | dose: 150.0 mg/kg/injection, schedule: Q01DX001 (ip), vehicle: other 100 % of control | dose: 200.0 mg/kg/injection, schedule: Q04DX003 (ip), vehicle: Klucel (hydroxypropylcellulose) (HPC) 100 % of control | dose: 300.0 mg/kg/injection, schedule: Q01DX001 (ip), vehicle: other 103 % of control | dose: 400.0 mg/kg/injection, schedule: Q04DX003 (ip), vehicle: Klucel (hydroxypropylcellulose) (HPC) 107 % of control

NC(CSS(=O)(=O)O)=NC1CC1
inactive: [1] 94 % of control | [2] 91 % of control | [3] 109 % of control

CCN(CC)c1ccc(N=Nc2ccc(S(=O)(=O)O)cc2)cc1
inactive: dose: 25.0 mg/kg/injection, schedule: Q01DX009 (ip), vehicle: saline 97 % of control | dose: 50.0 mg/kg/injection, schedule: Q01DX009 (ip), vehicle: saline 91 % of control | [4] 88 % of control | [5] 100 % of control

Nc1ncc(-c2ccccc2)nn1 (tested in a mixture with another compound)
inactive: [6] 90 % of control | dose: 200.0 mg/kg/injection, schedule: Q01DX001 (ip), vehicle: Klucel (hydroxypropylcellulose) (HPC) 90 % of control | dose: 400.0 mg/kg/injection, schedule: Q01DX001 (ip), vehicle: Klucel (hydroxypropylcellulose) (HPC) 116 % of control

O=c1[nH]c(=S)[nH]cc1Cc1cccc2ccccc12
inactive: dose: 25.0 mg/kg/injection, schedule: Q01DX001 (ip), vehicle: Klucel (hydroxypropylcellulose) (HPC) 104 % of control | dose: 50.0 mg/kg/injection, schedule: Q01DX001 (ip), vehicle: Klucel (hydroxypropylcellulose) (HPC) 94 % of control | [6] 92 % of control

C/C(CCC(=O)O)=N/O
inactive: [5] 101 % of control | dose: 100.0 mg/kg/injection, schedule: Q04DX003 (ip), vehicle: saline 95 % of control | dose: 200.0 mg/kg/injection, schedule: Q01DX009 (ip), vehicle: saline 97 % of control | dose: 200.0 mg/kg/injection, schedule: Q04DX003 (ip), vehicle: saline 100 % of control | dose: 400.0 mg/kg/injection, schedule: Q01DX009 (ip), vehicle: saline 105 % of control | dose: 400.0 mg/kg/injection, schedule: Q04DX003 (ip), vehicle: saline 101 % of control

O=[N+]([O-])c1c(Br)ncn1Cc1ccccc1
inactive: dose: 100.0 mg/kg/injection, schedule: Q04DX003 (ip), vehicle: acetone 99 % of control | dose: 200.0 mg/kg/injection, schedule: Q04DX003 (ip), vehicle: acetone 96 % of control

COc1cc2ccnc(-c3onc4cc(OC)c(OC)cc34)c2cc1OC
inactive: dose: 75.0 mg/kg/injection, schedule: Q01DX001 (ip), vehicle: saline 101 % of control | dose: 150.0 mg/kg/injection, schedule: Q01DX001 (ip), vehicle: saline 98 % of control | dose: 300.0 mg/kg/injection, schedule: Q01DX001 (ip), vehicle: saline 98 % of control

NC(N)=N/N=C\c1c[nH]c2ccc(Br)cc12
inactive: dose: 15.0 mg/kg/injection, schedule: Q01DX Z (ip), vehicle: saline 96 % of control | dose: 30.0 mg/kg/injection, schedule: Q01DX Z (ip), vehicle: saline 113 % of control | dose: 60.0 mg/kg/injection, schedule: Q01DX Z (ip), vehicle: saline 103 % of control | dose: 120.0 mg/kg/injection, schedule: Q01DX Z (ip), vehicle: saline 106 % of control | dose: 240.0 mg/kg/injection, schedule: Q01DX Z (ip), vehicle: saline 98 % of control | dose: 240.0 mg/kg/injection, schedule: Q01DX Z (oral), vehicle: saline 94 % of control | dose: 480.0 mg/kg/injection, schedule: Q01DX Z (oral), vehicle: saline 94 % of control

Cc1[nH]c(=O)[nH]c(=O)c1CN1CCOCC1
inactive: dose: 100.0 mg/kg/injection, schedule: Q04DX003 (ip), vehicle: saline with Tween-80 102 % of control | dose: 200.0 mg/kg/injection, schedule: Q04DX003 (ip), vehicle: saline with Tween-80 113 % of control | dose: 400.0 mg/kg/injection, schedule: Q04DX003 (ip), vehicle: saline with Tween-80 100 % of control

COc1cc2c(cc1OC)C(=O)Cc1ccc3c(c1CN(C)CC2)OCO3
inactive: dose: 100.0 mg/kg/injection, schedule: Q01DX009 (ip), vehicle: Klucel (hydroxypropylcellulose) (HPC) 95 % of control | dose: 200.0 mg/kg/injection, schedule: Q01DX009 (ip), vehicle: Klucel (hydroxypropylcellulose) (HPC) 95 % of control

O=[N+]([O-])c1cccc2cccnc12
inactive: dose: 50.0 mg/kg/injection, schedule: Q01DX001 (ip), vehicle: saline 107 % of control | dose: 50.0 mg/kg/injection, schedule: Q01DX009 (ip), vehicle: saline with Tween-80 95 % of control | [4] 107 % of control | dose: 100.0 mg/kg/injection, schedule: Q01DX009 (ip), vehicle: saline with Tween-80 93 % of control

CC(C)NCC1CCCCO1 (configuration not stated)
inactive: dose: 55.0 mg/kg/injection, schedule: Q01DX Z (ip), vehicle: methylcellulose (MC) 91 % of control | dose: 83.0 mg/kg/injection, schedule: Q01DX Z (ip), vehicle: methylcellulose (MC) 88 % of control | dose: 125.0 mg/kg/injection, schedule: Q01DX Z (ip), vehicle: methylcellulose (MC) 100 % of control
